Test results taken from paper PMC4389562, “Antigiardial activity of novel triazolyl-quinolone-based chalcone derivatives: when oxygen makes the difference” (Frontiers in Microbiology, 2015).
Read-outs that look alike come from different tables or passages of the source.

How the values were obtained:
[1] = tested on: Giardia intestinalis trophozoites; experiment: Drug susceptibility of Giardia trophozoites, ATP level by luminescence (BacTiter-Glo), 48 h incubation, anaerobic or microaerobic; format: cell-based, Giardia intestinalis strain WB clone C6; conditions: for IC50: 48 h, 37 °C, ATP level; for selectivity ratio at 48 h: human (Caco-2 cells) versus Giardia intestinalis, Caco-2, SI = IC50,Caco-2/IC50,Giardia
Protocol: Trophozoites of G. intestinalis strain WB clone C6 (ATCC No. 50803TM) were cultured axenically at 37^∘C in 25-cm^2 flasks containing Diamond's TYI-S-33 medium supplemented with 10% bovine calf serum, 1 mg/mL bovine bile, 0.1 g/L streptomycin and 100 U/mL penicillin. Typically, 50 ml medium was inoculated with 25 × 10^6 cells and after 2 days cells were harvested by chilling the flasks on ice for 30 min for drug susceptibility assays. […] The assays were performed following the procedure described in [Bahadur et al. (2014)], using sterile 96-well white clear-bottom plates. […] Each drug concentration was tested in at least six replicates. MTZ was used as an internal positive control in the assay. The microtiter plates were then incubated at 37^∘C under anaerobic or microaerobic conditions, ensured by the Anaerocult® A or the Anaerocult® […] (Merck), respectively. […] Following 48 h incubation with the compound to be tested, 100 μL of the BacTiter-Glo^TM Microbial Cell Viability Assay System reagent (Promega) was added to each well for one-step lysis and ATP level detection. Plates were then incubated at room temperature for 15 min and ATP levels finally detected by luminescence on a plate reader (Wallac Victor3 1420 Multilabel Counter, PerkinElmer). Luminometric data were calibrated using ATP standard curves and normalized to the ATP level measured in control DMSO-treated cells (taken as 100%). The measured ATP level percentage was plotted as a function of the compound concentration and the half-maximal inhibitory concentration (IC50) was obtained by fitting the resulting titration profile to the Hill equation ([Goutelle et al., 2008]). The selectivity index (SI) of the compounds was then calculated as the ratio between the IC50 value measured on human cells over the value determined on Giardia trophozoites (SI = IC50,Caco-2/IC50,Giardia). The antigiardial activity of the novel compounds 23-67 was tested under both anaerobic and microaerobic conditions. According to ([Dunn et al., 2010]; [Bahadur et al., 2014]), susceptibility of Giardia trophozoites to increasing concentrations of each compound was assessed based on ATP level determination by luminescence. Dose-response curves for each compound were obtained after 48 h-incubation and compared to the data collected under identical conditions with MTZ, the drug of choice for treatment of giardiasis. […] Typical dose-response curves are shown in Figure 2, whereas the IC50 values measured for the synthetic compounds and MTZ under anaerobic and microaerobic conditions are reported in Table 1. […] Under anaerobic conditions, 18 out of the 45 synthetic compounds were as effective as MTZ or more under identical conditions (see Table 1).

Caco-2 cells = experiment: Counter-screen on Caco-2 cells, ATP level by luminescence (ATPlite), 48 h incubation; format: cell-based, human; conditions: atmospheric O2, 5% CO2, 48 h, 37 °C
Protocol: Trophozoites of G. intestinalis strain WB clone C6 (ATCC No. 50803TM) were cultured axenically at 37^∘C in 25-cm^2 flasks containing Diamond’s TYI-S-33 medium supplemented with 10% bovine calf serum, 1 mg/mL bovine bile, 0.1 g/L streptomycin and 100 U/mL penicillin. […] Human epithelial colorectal adenocarcinoma (Caco-2) cells were grown in 25-cm^2 flasks in EMEM supplemented with 1% (v/v) non-essential amino acids, 2 mM glutamine, 5% (v/v) fetal bovine serum, 0.1 g/L streptomycin, and 100 U/mL penicillin.
Cells were detached with 0.5% trypsin-EDTA and seeded in sterile 96-well white clear-bottom plates at the same density of Giardia trophozoites and at increasing concentration of the compound to be tested, as described above. The assays were carried out exactly as reported for the Giardia trophozoites, except that the plates were incubated (still at 37^∘C) at atmospheric O2 level, 5% CO2, and 95% humidity. Each drug concentration was tested in at least seven replicates. MTZ was used as an internal […] control in the assay. Following 48 h incubation with each compound, according to the manufacturer instructions, 100 μL of the ATPlite^TM luminescence assay system (Perkin Elmer) was added to each well for one-step lysis and ATP level detection by luminescence.
Luminometric data were calibrated using ATP standard curves and normalized to the ATP level measured in control DMSO-treated cells (taken as 100%). The measured ATP level percentage was plotted as a function of the compound concentration and the half-maximal inhibitory concentration (IC50) was obtained by fitting the resulting titration profile to the Hill equation ([Goutelle et al., 2008]). The selectivity index (SI) of the compounds was then calculated as the ratio between the IC50 value measured on human cells over the value determined on Giardia trophozoites (SI = IC50,Caco-2/IC50,Giardia).
Selectivity of the newly synthesized compounds toward Giardia was assessed by running a counter-screen on human epithelial Caco-2 cells. […] This allowed us to calculate the compounds SI, defined as the ratio between the IC50 value measured on human cells over the value determined on Giardia trophozoites.

Giardia = tested on: Giardia; set-up: method as in Cedillo-Rivera and Munoz, 1992; conditions: anaerobic conditions; ref Cedillo-Rivera and Munoz, 1992; read-out: IC50 against Giardia under anaerobic conditions; cited from earlier work
[2] = Giardia duodenalis, anaerobic conditions (Anaerocult A), read-out: Giardia (anaerobiosis) IC50
[3] = Giardia duodenalis, microaerobic conditions (~5% O2, Anaerocult C), read-out: Giardia (microaerobiosis) IC50
[4] = Giardia under anaerobiosis, read-out: Selectivity (IC50,Caco/IC50,Giardia) Anaerobiosis
[5] = Giardia under microaerobiosis, read-out: Selectivity (IC50,Caco/IC50,Giardia) Microaerobiosis

COc1ccccc1C(=O)/C=C/c1cc2ccccc2n(Cc2cn(-c3ccccc3)nn2)c1=O [Compound 65]
IC50 [1, 2]: 2.2 to 3.2 µM
IC50 [1, 3]: 0.4 µM
IC50 ([1]; anaerobic conditions (Anaerocult A), read-out: Giardia (anaerobiosis) IC50): 1.6 µM
IC50 (Caco-2 cells; Homo sapiens, Caco-2, 48 h): ≥ 40 µM
IC50 (Caco-2 cells): ≥ 50 µM
melting point: 210 to 212 °C

COc1cccc(C(=O)/C=C/c2cc3ccccc3n(Cc3cn(-c4ccccc4)nn3)c2=O)c1 [Compound 66]
IC50 [1, 2]: 3.2 µM
IC50 [1, 3]: 1.6 µM
selectivity ratio at 48 h [1, 4]: > 15
selectivity ratio at 48 h [1, 5]: > 30
IC50 (Caco-2 cells; Homo sapiens, Caco-2, 48 h): ≥ 40 µM
IC50 (Caco-2 cells): ≥ 50 µM
melting point: 224 to 226 °C

COc1ccc(C(=O)/C=C/c2cc3ccccc3n(Cc3cn(-c4ccccc4)nn3)c2=O)cc1 [Compound 67]
IC50 [1, 2]: 5.9 µM
IC50 [1, 3]: 0.8 µM
selectivity ratio at 48 h [1, 4]: ≥ 16
selectivity ratio at 48 h [1, 5]: ≥ 125
IC50 (Caco-2 cells; Homo sapiens, Caco-2, 48 h): ≥ 100 µM
melting point: 215 to 217 °C

CCCSc1ccc2nc(NC(=O)OC)[nH]c2c1 [albendazole]
IC50 (Giardia): < 0.1 µM
